The source of these data is patent US8530462B2, “Indole modulators of S1P receptors” (Allergan, Inc., priority 2010, dated 2013).

This assay addresses T1, human S1P1 receptor (Homo sapiens, UniProt P21453).
T1 construct: expressed in transfected cells; membranes were used
Nature of the assay: GTP γ35S binding assay, S1P1 receptor activity. Format: biochemical. Conditions: for % stimulation: S1P1 receptor, agonist-induced stimulation; for EC50: membranes of cells stably expressing the S1P1 receptor, test compounds 0.08 to 5,000 nM. The method, then:
The S1P1 activity of the compounds according to the invention, were tested using the GTP γ^35S binding assay. The compounds were assessed for their ability to activate or block activation of the human S1P1 receptor in cells stably expressing the S1P1 receptor.
GTP γ^35S binding was measured in the medium containing (mM) HEPES 25, pH 7.4, MgCl2 10, NaCl 100, dithitothreitol 0.5, digitonin 0.003%, 0.2 nM GTP γ^35S, and 5 μg membrane protein in a volume of 150 μl. Test compounds were included in the concentration range from 0.08 to 5,000 nM unless indicated otherwise. Membranes were incubated with 100 μM 5′-adenylylimmidodiphosphate for 30 min, and subsequently with 10 μM GDP for 10 min on ice. Drug solutions and membrane were mixed, and then reactions were initiated by adding GTP γ^35S and continued for 30 min at 25° C. Reaction mixtures were filtered over Whatman GF/B filters under vacuum, and washed three times with 3 mL of ice-cold buffer (HEPES 25, pH7.4, MgCl2 10 and NaCl 100). Filters were dried and mixed with scintillant, and counted for ^35S activity using a β-counter. Agonist-induced GTP γ^35S binding was obtained by subtracting that in the absence of agonist. Binding data were analyzed using a non-linear regression method. In case of antagonist assay, the reaction mixture contained 10 nM S1P in the presence of test antagonist at concentrations ranging from 0.08 to 5000 nM.
Activity potency: S1P1 receptor from GTP γ^35S: nM, (EC50), % stimulation, […]
(GTPγS resists hydrolysis and so accumulates on activated G proteins.)

Molecules are shown by their SMILES.

T1 sequence (P21453 whole entry): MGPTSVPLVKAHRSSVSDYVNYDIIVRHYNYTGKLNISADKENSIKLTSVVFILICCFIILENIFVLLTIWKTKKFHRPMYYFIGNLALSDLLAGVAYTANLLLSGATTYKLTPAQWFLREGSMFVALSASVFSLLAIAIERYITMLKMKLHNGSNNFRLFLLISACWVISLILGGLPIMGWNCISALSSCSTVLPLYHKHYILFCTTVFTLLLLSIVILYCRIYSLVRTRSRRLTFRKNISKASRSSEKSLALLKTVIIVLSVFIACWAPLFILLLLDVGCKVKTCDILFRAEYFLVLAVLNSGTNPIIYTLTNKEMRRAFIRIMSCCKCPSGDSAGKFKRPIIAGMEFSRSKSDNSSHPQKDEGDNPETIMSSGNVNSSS

`Cc1ccc2c(c1)c(-c1nc(-c3ccc(CN4CC(C(=O)O)C4)cc3)no1)cn2Cc1ccc(C)c(C)c1` [Compound 1, 1-(4-{5-[1-(3,4-dimethylbenzyl)-5-methyl-1H-indol-3-yl]-1,2,4-oxadiazol-3-yl}benzyl)azetidine-3-carboxylic acid] showed a % stimulation of 92% and an EC50 of 426 nM.

In turn, `O=C(O)C1CN(Cc2ccc(-c3noc(-c4cn(Cc5ccccc5)c5ccccc45)n3)cc2)C1` [Compound 8, 1-{4-[5-(1-benzyl-1H-indol-3-yl)-1,2,4-oxadiazol-3-yl]benzyl}azetidine-3-carboxylic acid] came in with a % stimulation of 66% and an EC50 of 494 nM. Regarding `O=C(O)CCNCc1ccc(-c2noc(-c3cn(Cc4ccccc4)c4ccc(F)cc34)n2)cc1` [Compound 17, 3-({4-[5-(1-benzyl-5-fluoro-1H-indol-3-yl)-1,2,4-oxadiazol-3-yl]benzyl}amino)propanoic acid], the % stimulation is 100% and it took 129 nM to reach a half-maximal effect (EC50). Regarding `Cc1ccc(Cn2cc(-c3nc(-c4ccc(CN5CC(C(=O)O)C5)cc4)no3)c3ccccc32)cc1C` [Compound 4, 1-(4-{5-[1-(3,4-dimethylbenzyl)-1H-indol-3-yl]-1,2,4-oxadiazol-3-yl}benzyl)azetidine-3-carboxylic acid], the % stimulation amounted to 92% and the EC50 worked out at 1020 nM. Take `Cc1ccc(Cn2cc(-c3nc(-c4ccc(CN5CC(C(=O)O)C5)cc4)no3)c3cc(F)ccc32)cc1C` [Compound 2, 1-(4-{5-[1-(3,4-dimethylbenzyl)-5-fluoro-1H-indol-3-yl]-1,2,4-oxadiazol-3-yl}benzyl)azetidine-3-carboxylic acid]: the % stimulation turned out to be 94% and the concentration giving a half-maximal response (EC50) was 737 nM.

As to `Cc1ccc(Cn2c(C)c(-c3nc(-c4ccc(CN5CC(C(=O)O)C5)cc4)no3)c3cc(F)ccc32)cc1C` [Compound 9, 1-(4-{5-[1-(3,4-dimethylbenzyl)-5-fluoro-2-methyl-1H-indol-3-yl]-1,2,4-oxadiazol-3-yl}benzyl)azetidine-3-carboxylic acid], the % stimulation was 85% and it took 1000 nM to reach a half-maximal effect (EC50).

`O=C(O)C1CN(Cc2ccc(-c3noc(-c4cn(Cc5ccccc5)c5ccc(F)cc45)n3)cc2)C1` [Compound 5, 1-{4-[5-(1-benzyl-5-fluoro-1H-indol-3-yl)-1,2,4-oxadiazol-3-yl]benzyl}azetidine-3-carboxylic acid] returned a % stimulation of 91% and an EC50 of 189 nM. In the same order, the values of `Cc1ccc2c(c1)c(-c1nc(-c3ccc(CNCCC(=O)O)cc3)no1)cn2Cc1ccc(C)c(C)c1` [Compound 13, 3-[(4-{5-[1-(3,4-dimethylbenzyl)-5-methyl-1H-indol-3-yl]-1,2,4-oxadiazol-3-yl}benzyl)amino]propanoic acid] are 82% and 351 nM.

For the compound `O=C(O)CCCCNCc1ccc(-c2noc(-c3cn(Cc4ccccc4)c4ccccc34)n2)cc1` [Compound 15, 5-({4-[5-(1-benzyl-1H-indol-3-yl)-1,2,4-oxadiazol-3-yl]benzyl}amino)pentanoic acid], the % stimulation came out at 108% and the response was half-maximal at 1010 nM (EC50). `CNc1ncccc1-c1noc(-c2cn(Cc3ccc(C)c(C)c3)c3ccc(F)cc23)n1` [Compound 11, 3-{5-[1-(3,4-dimethylbenzyl)-5-fluoro-1H-indol-3-yl]-1,2,4-oxadiazol-3-yl}-N-methylpyridin-2-amine] gave an EC50 of 569 nM. In turn, `c1ccc(Cn2cc(-c3nc(-c4ccc(Cn5ccnc5)cc4)no3)c3ccccc32)cc1` [Compound 6, 1-benzyl-3-{3-[4-(1H-imidazol-1-ylmethyl)phenyl]-1,2,4-oxadiazol-5-yl}-1H-indole] gave a % stimulation of 86% and an EC50 of 1160 nM. In the same order, the values of `Cc1ccc(Cn2cc(-c3nc(-c4ccc(CNCCC(=O)O)cc4)no3)c3ccccc32)cc1C` [Compound 16, 3-[(4-{5-[1-(3,4-dimethylbenzyl)-1H-indol-3-yl]-1,2,4-oxadiazol-3-yl}benzyl)amino]propanoic acid] are 81% and 1440 nM. In the same order, the values of `CNc1ncccc1-c1noc(-c2cn(Cc3ccccc3)c3ccccc23)n1` [Compound 10, 3-[5-(1-benzyl-1H-indol-3-yl)-1,2,4-oxadiazol-3-yl]-N-methylpyridin-2-amine] are 88% and 703 nM. The compound `O=C(O)CCNCc1ccc(-c2noc(-c3cn(Cc4ccccc4)c4ccccc34)n2)cc1` [Compound 12, 3-({4-[5-(1-benzyl-1H-indol-3-yl)-1,2,4-oxadiazol-3-yl]benzyl}amino)propanoic acid] displayed an EC50 of 394 nM. Compound `Cc1ccc(Cn2cc(-c3nc(-c4ccc(CNCCC(=O)O)cc4)no3)c3cc(F)ccc32)cc1C` [Compound 14, 3-[(4-{5-[1-(3,4-dimethylbenzyl)-5-fluoro-1H-indol-3-yl]-1,2,4-oxadiazol-3-yl}benzyl)amino]propanoic acid] had a % stimulation of 93% and an EC50 of 1490 nM. The corresponding values for `COc1ccc2c(c1)c(-c1nc(-c3ccc(CN4CC(C(=O)O)C4)cc3)no1)c(C)n2Cc1ccc(C)c(C)c1` [Compound 3, 1-(4-{5-[1-(3,4-dimethylbenzyl)-5-methoxy-2-methyl-1H-indol-3-yl]-1,2,4-oxadiazol-3-yl}benzyl)azetidine-3-carboxylic acid] are 82% and 1560 nM.

As usually defined, the EC50 is the concentration needed to bring the measured effect to its halfway point.
